Read-outs that look alike come from different tables or passages of the source.
Experiments:
[1] = system: Spodoptera littoralis (Egyptian cotton leafworm); assay: Example B1: Activity against Spodoptera littoralis (larvicide, feeding/residual contact activity, preventive), cotton leaf discs; format: in vivo; conditions: foliar, 72 h, L1 larvae on cotton leaf discs, 3 days after treatment
Description: Activity Against Spodoptera littoralis (Egyptian Cotton Leafworm)
(Larvicide, Feeding/Residual Contact Activity, Preventive)
The samples are checked for mortality, repellent effect, feeding behaviour, and growth regulation 3 days after treatment. In this test, compounds listed in Table P above show good activity. In particular compounds P.1, P.2, P.3, P.4, P.5, P.6, P.7, P.8, P.9, P.10, P.11, P.12, P.13, P.14, P.15, P.16, P.17, P.18, P.19, P.20, P.21, P.22, P.23, P.24, P.25, P.26, P.27, P.28, P.29, P.30, P.31, P.32, P.33, P.34, P.35, P.36, P.37, P.38, P.39, P.40, P.41, P.42, P.43, P.44, P.46, P.50, P.51, P.52, P.55, P.56, P.57, P.58, P.59, P.60, P61, P.66, P.67, P.68, P.69, P.70, P.71, P.72, P.73, P.74, P.75, P.76, P.77, P.78, P.83, P.84, P.87 and P.88 show an activity of over 80% at a concentration of 400 ppm.

[2] = system: Heliothis virescens (tobacco budworm); assay: Example B2: Activity against Heliothis virescens (ovo-larvicide, feeding/contact activity, curative), eggs on artificial diet; format: in vivo; conditions: 96 h, 4 days incubation
Procedure: Activity Against Heliothis virescens (Tobacco Budworm) (Ovo-Larvicide, Feeding/Contact Activity, Curative) Eggs (0-24 h old) are placed in 24-well microtiter plate on artificial diet and treated with test solutions by pipetting. After an incubation period of 4 days, samples are checked for egg mortality, larval mortality, and growth regulation.

[3] = system: Plutella xylostella (diamond back moth); assay: Example B3: Plutella xylostella (larvicide, feeding/residual contact activity, preventive), artificial diet MTP; format: in vivo; conditions: 120 h, L2 larvae on artificial diet, 5 days incubation
Procedure: (§1) Plutella xylostella (Diamond Back Moth) (Larvicide, Feeding/Residual Contact Activity, Preventive) 24-well microtiter plate (MTP) with artificial diet is treated with test solutions by pipetting. After drying, the MTP's are infested with larvae (L2) (10-15 per well). After an incubation period of 5 days, samples are checked for larval mortality, antifeedant and growth regulation.

[4] = system: Diabrotica balteata (corn root worm); assay: Example B4: Diabrotica balteata (larvicide, feeding/residual contact activity, preventive), artificial diet MTP; format: in vivo; conditions: 120 h, L2 larvae on artificial diet, 5 days incubation
Procedure: as §1, with “Diabrotica balteata (Corn Root Worm)” for “Plutella xylostella (Diamond Back Moth)”, “(6-10” for “(10-15”

[5] = system: Myzus persicae (green peach aphid); conditions: foliar, 144 h, read-out: activity
[6] = system: Myzus persicae (green peach aphid); assay: Example B6: Activity against Myzus persicae (mixed population, systemic/feeding activity, curative), pea seedling roots in test solution; conditions: 144 h, read-out: activity

Measured: pest or weed control at 400 ppm

CC(C)NC(=O)c1c(NC(=O)c2cc(Cl)nn2-c2ncccc2Cl)c(Cl)cc2c1OC(F)(F)O2 [P.23]
> 80%: [1] | [2] | [3] | [4] | [5] | [6]

CNC(=O)c1c(NC(=O)c2cc(Br)nn2-c2ncccc2Cl)c(C)cc2c1OC(F)(F)O2 [P.26]
> 80%: [1] | [2] | [3] | [4] | [5] | [6]

O=C(NC1(C2CC2)CC1)c1c(NC(=O)c2cc(Br)nn2-c2ncccc2Cl)c(Cl)cc2c1OC(F)(F)O2 [P.21]
> 80%: [1] | [2] | [3] | [4] | [5]

CNC(=O)c1c(NC(=O)c2cc(C(F)(F)F)nn2-c2ncccc2Cl)c(Cl)cc2c1OC(F)(F)O2 [P.15]
> 80%: [1] | [2] | [3] | [4] | [5] | [6]

Cc1cc2c(c(C(=O)NC(C)C)c1NC(=O)c1cc(Cl)nn1-c1ncccc1Cl)OC(F)(F)O2 [P.30]
> 80%: [1] | [2] | [3] | [4] | [5] | [6]

CNC(=O)c1c(NC(=O)c2cc(Cl)nn2-c2ncccc2Cl)c(C)cc2c1OC(F)(F)O2 [P.29]
> 80%: [1] | [2] | [3] | [4] | [6]

CNC(=O)c1c(NC(=O)c2cc(C(F)F)nn2-c2ncccc2Cl)c(Br)cc2c1OC(C)C2 (stereo not drawn) [P.83]
> 80%: [1] | [2] | [3] | [4] | [5]

COc1cc(C(=O)Nc2c(C)cc3c(c2C(=O)NC(C)C)OCO3)n(-c2ncccc2Cl)n1 [P.77]
> 80%: [1] | [2] | [3] | [6]

Cc1cc2c(c(C(=O)NC(C)C)c1NC(=O)c1cc(Br)nn1-c1ncccc1Cl)OC(F)(F)O2 [P.14]
> 80%: [1] | [2] | [3] | [5] | [6]

CNC(=O)c1c(NC(=O)c2cc(Br)nn2-c2ncccc2Cl)c(Br)cc2c1S(=O)(=O)C(C)C2 (stereo not drawn) [P.88]
> 80%: [1] | [2] | [3] | [5]

CC(C)NC(=O)c1c(NC(=O)c2cc(C(F)F)nn2-c2ncccc2Cl)c(Cl)cc2c1OCO2 [P.4]
> 80%: [1] | [2] | [3] | [4]

Cc1cc2c(c(C(=O)NC(C)(C)C)c1NC(=O)c1cc(C(F)(F)F)nn1-c1ncccc1Cl)OCO2 [P.70]
> 80%: [1] | [2] | [3] | [4]

Cc1cc2c(c(C(=O)NC3(C4CC4)CC3)c1NC(=O)c1cc(C(F)(F)F)nn1-c1ncccc1Cl)OCO2 [P.69]
> 80%: [1] | [2] | [3] | [4]

CNC(=O)c1c(NC(=O)c2cc(Cl)nn2-c2ncccc2Cl)c(Cl)cc2c1OC(F)(F)O2 [P.22]
> 80%: [1] | [2] | [3] | [4] | [5] | [6]

CCNC(=O)c1c(NC(=O)c2cc(C(F)F)nn2-c2ncccc2Cl)c(Cl)cc2c1OCO2 [P.5]
> 80%: [1] | [2] | [3] | [5]

COc1cc(C(=O)Nc2c(Cl)cc3c(c2C(=O)NC(C)C)C(O)CC3)n(-c2ncccc2Cl)n1 (stereo not drawn) [P.66]
> 80%: [1] | [2] | [3] | [6]

Cc1cc2c(c(C(=O)NC(C)C)c1NC(=O)c1cc(C(F)F)nn1-c1ncccc1Cl)OCO2 [P.74]
> 80%: [1] | [2] | [3] | [4] | [6]

COc1cc(C(=O)Nc2c(Cl)cc3c(c2C(=O)NC(C)C)OCO3)n(-c2ncccc2Cl)n1 [P.12]
> 80%: [1] | [2] | [3] | [5]

CNC(=O)c1c(NC(=O)c2cc(Br)nn2-c2ncccc2Cl)c(Br)cc2c1OC(F)(F)O2 [P.41]
> 80%: [1] | [2] | [3] | [4]

Cc1cc2c(c(C(=O)NC(C)C)c1NC(=O)c1cc(C(F)(F)F)nn1-c1ncccc1Cl)OC(F)(F)O2 [P.44]
> 80%: [1] | [2] | [3] | [4]

Cc1cc2c(c(C(=O)NC3(C4CC4)CC3)c1NC(=O)c1cc(Br)nn1-c1ncccc1Cl)OCO2 [P.78]
> 80%: [1] | [2] | [3] | [4]

CC(C)NC(=O)c1c(NC(=O)c2cc(Br)nn2-c2ncccc2Cl)c(Br)cc2c1OC(F)(F)O2 [P.42]
> 80%: [1] | [2] | [3] | [4]

Cc1cc2c(c(C(=O)NC3(C4CC4)CC3)c1NC(=O)c1cc(Br)nn1-c1ncccc1Cl)OC(F)(F)O2 [P.28]
> 80%: [1] | [2] | [3] | [4]

O=C(NC1(C2CC2)CC1)c1c(NC(=O)c2cc(Cl)nn2-c2ncccc2Cl)c(Cl)cc2c1OC(F)(F)O2 [P.25]
> 80%: [1] | [2] | [3] | [4]

Cc1cc2c(c(C(=O)NC3(C4CC4)CC3)c1NC(=O)c1cc(C(F)F)nn1-c1ncccc1Cl)OCO2 [P.71]
> 80%: [1] | [2] | [3] | [5]

COc1cc(C(=O)Nc2c(Br)cc3c(c2C(=O)NC(C)C)OC(F)(F)O3)n(-c2ncccc2Cl)n1 [P.40]
> 80%: [1] | [2] | [3] | [4]

CCNC(=O)c1c(NC(=O)c2cc(OC)nn2-c2ncccc2Cl)c(C)cc2c1OCO2 [P.76]
> 80%: [1] | [2] | [3] | [6]

CC(C)NC(=O)c1c(NC(=O)c2cc(Cl)nn2-c2ncccc2Cl)c(Cl)cc2c1OCO2 [P.3]
> 80%: [1] | [2] | [3] | [4]

O=C(NC1(C2CC2)CC1)c1c(NC(=O)c2cc(Cl)nn2-c2ncccc2Cl)c(Cl)cc2c1OCO2 [P.6]
> 80%: [1] | [2] | [3] | [4]

CC(C)NC(=O)c1c(NC(=O)c2cc(Br)nn2-c2ncccc2Cl)ccc2c1S(=O)(=O)C(C)C2 (stereo not drawn) [P.60]
> 80%: [1] | [2] | [3] | [4]

— US8399490B2, “Insecticides” (Syngenta Crop Protection LLC, priority 2007, dated 2013)
